Results published in ChEMBL document CHEMBL3507680, “University of Dundee, Gates Library screen for HepG2 cell viability”.

Experiment: Human HepG2 cell viability assay in 384 well format
Type: toxicity, cell-based
Set-up: dose 125 nL, time 70.5 hour; cytotoxicity at 70.5 h: concentration not given beside the values
Settings: HepG2 cells, read-out: Inhibition

## Cc1cccc(-c2nc(C)nn2CN2CCC3(CC2)OCCO3)c1
  cytotoxicity at 70.5 h: 11.8%

## CCC(CO)N(Cc1ccsc1)Cc1c(C)nn(C)c1Cl (stereo unspecified)
  cytotoxicity at 70.5 h: -5.33%

## Cc1nn(C)c2ncc(S(=O)(=O)N3CCCC(C)CC3)cc12 (stereo unspecified)
  cytotoxicity at 70.5 h: -8.46%

## CCc1cc(N(C)Cc2c(C)nn(C)c2C)n2nccc2n1
  cytotoxicity at 70.5 h: -2.89%

## O=C(c1ccc(-c2ccoc2)nc1)N1CCCN(C2CCCCC2)CC1
  cytotoxicity at 70.5 h: -12.9%

## CC(C)c1cc(NC(=O)CN2CCc3cncnc3C2)on1
  cytotoxicity at 70.5 h: -11.7%

## O=C1CCCc2nccc(-c3ccccc3)c21
  cytotoxicity at 70.5 h: 23.5%

## CC(=O)N(Cc1noc(C2CC2)n1)C1CCN(Cc2ccncc2)C1 (stereo unspecified)
  cytotoxicity at 70.5 h: 19.8%

## CCC(=O)NC1CCCN(c2cncc(OCc3ccccc3)n2)C1 (stereo unspecified)
  cytotoxicity at 70.5 h: -0.318%

## CCOCCN1CCN(Cc2coc(-c3cccc(F)c3)n2)CC1
  cytotoxicity at 70.5 h: -1.54%

## Cc1ccc(C(=O)N(Cc2ccccc2F)C2CC2)c(=O)[nH]1
  cytotoxicity at 70.5 h: 7.09%

## Cc1ccccc1S(=O)(=O)N1CCCCC1c1ccn[nH]1 (stereo unspecified)
  cytotoxicity at 70.5 h: -28.4%

## CN1[C@@H](C(=O)NCC2CC2)C[C@@H]2CN(c3ncccn3)C[C@@H]21
  cytotoxicity at 70.5 h: -3.13%

## Cc1nc(O)cc(CN2C[C@H](NC(=O)C3CCC3)[C@@H](C3CC3)C2)n1
  cytotoxicity at 70.5 h: -3.55%

## O=c1oc(-c2ccc(F)cc2)nn1CCS(=O)(=O)c1ccccc1
  cytotoxicity at 70.5 h: -9.58%

## CN(C)c1ncnc2c1CCN(S(=O)(=O)c1cccc3nsnc13)C2
  cytotoxicity at 70.5 h: -5.63%

## O=C1CCC2(CCCO2)CCN1Cc1noc(C2CCCC2)n1 (stereo unspecified)
  cytotoxicity at 70.5 h: 0.738%

## COc1c(CNC2CCCN(c3ncccn3)C2)c(C(C)C)nn1C (stereo unspecified)
  cytotoxicity at 70.5 h: 18.4%

## Cc1c(C(=O)N2CCC2(C)C)nnn1-c1cccc2cnccc12
  cytotoxicity at 70.5 h: -12.7%

## O=c1n(Cc2ccc(C(F)(F)F)cc2)nc2ncccn12
  cytotoxicity at 70.5 h: 24.3%

## CCN(CC)C(=O)CSc1nc2cc(C)nc-2c(O)n1CC
  cytotoxicity at 70.5 h: 6.98%

## Cc1cc(C)n(CCC(=O)N2CCC(c3nc(C)no3)CC2)n1
  cytotoxicity at 70.5 h: -12.5%

## CN(C)CCOCc1nnc2n1CCN(Cc1ccsc1)C2
  cytotoxicity at 70.5 h: 2.24%

## CCOCC(=O)N(Cc1ccco1)c1ccc(OC)c(F)c1
  cytotoxicity at 70.5 h: -5.82%

## CNC(=O)CCc1cc(C)nc(C2CCCN2)c1 (stereo unspecified)
  cytotoxicity at 70.5 h: -13.7%

## Cc1nc(Nc2nnc(C)s2)cc(C2CCCN2C2CCCC2)n1 (stereo unspecified)
  cytotoxicity at 70.5 h: -5.26%

## Cc1cccc(CN2C[C@H](OCc3ccccn3)[C@H]3COC[C@H]32)n1
  cytotoxicity at 70.5 h: 5.07%

## CC(C)c1ccc(OCCNC(=O)CN2CCN(C)CC2C)cc1 (stereo unspecified)
  cytotoxicity at 70.5 h: 1.16%

## COC[C@]12COC[C@H]1CN(Cc1ccc3ccccc3n1)C2
  cytotoxicity at 70.5 h: -3.53%

## Cc1cccc(SC2CCN(C(=O)CCCn3cnnn3)CC2)c1
  cytotoxicity at 70.5 h: -15.1%

## COC1COC2(CCN(Cc3ccccc3Cl)CC2)C1 (stereo unspecified)
  cytotoxicity at 70.5 h: -14.5%

## CC(NC(=O)c1cccs1)C(=O)NCc1ccccc1CN1CCCC1 (stereo unspecified)
  cytotoxicity at 70.5 h: -2%

## O=C(CCC1CCCC1)N1C[C@H]2CC[C@@H]1CN(Cc1ccncc1)C2
  cytotoxicity at 70.5 h: -11.9%

## Cn1nc(CNC(=O)NCc2ccc(Cl)cc2)c2c1CCOC2
  cytotoxicity at 70.5 h: -0.247%

## Cc1cc(C2CCCN(S(=O)(=O)c3cn[nH]c3)C2)ccn1 (stereo unspecified)
  cytotoxicity at 70.5 h: -7.27%

## CCC1CN(Cc2cccc(C(=O)N(C)C)c2)CCN1CCOC (stereo unspecified)
  cytotoxicity at 70.5 h: -8.03%

## COC(=O)c1sccc1S(=O)(=O)NCCC(O)c1ccco1 (stereo unspecified)
  cytotoxicity at 70.5 h: -8.35%

## CC(C)C1CN(c2ncccn2)CCC(=O)N1CC1CC1 (stereo unspecified)
  cytotoxicity at 70.5 h: 36.1%

## Cn1ccnc1CN1CCC2(CC(=O)N(c3ccccn3)C2)C1 (stereo unspecified)
  cytotoxicity at 70.5 h: -10.7%

## Cc1nc2ccc(C(=O)N3CC[C@H](O)[C@@H](N4CCOCC4)CC3)cc2[nH]1
  cytotoxicity at 70.5 h: 0.0805%

## CCc1ncncc1C(=O)NCCNc1ncnc2sccc12
  cytotoxicity at 70.5 h: -21.7%

## c1ccc(COc2cccc(CNC3CCc4ncnn4C3)c2)cc1 (stereo unspecified)
  cytotoxicity at 70.5 h: 19.6%

## CCCN1CC2(CCN(c3ncc(F)cn3)CC2)CC1C(=O)O (stereo unspecified)
  cytotoxicity at 70.5 h: -7.12%

## CC(CN1CCOCC1)N(Cc1ccccc1)Cc1ccncc1 (stereo unspecified)
  cytotoxicity at 70.5 h: -6.88%

## CC1N(c2cnn(C)c2)C(=O)COC12CCN(c1ncccn1)CC2 (stereo unspecified)
  cytotoxicity at 70.5 h: -1.11%

## Cc1nnc2n1CCN(CCS(=O)(=O)c1ccc(Cl)cc1)C2
  cytotoxicity at 70.5 h: 2.97%

## Cc1cccc(CN2CCC3(CCCN(CC(=O)N(C)C)C3)C2)n1 (stereo unspecified)
  cytotoxicity at 70.5 h: 7.75%

## O=C(NCCCNC(=O)c1ccccc1)Nc1ccc(F)cc1F
  cytotoxicity at 70.5 h: -4.28%

## CC1=Nc2c(c(=O)[nH]n2C2CCCCC2)C(c2cccnc2)S1 (stereo unspecified)
  cytotoxicity at 70.5 h: -12%

## CCS(=O)(=O)NC[C@]12COC[C@H]1CN(Cc1ccccn1)C2
  cytotoxicity at 70.5 h: -3.72%

## CC(CNC(=O)c1cnc[nH]1)Oc1ccc(Cl)cc1 (stereo unspecified)
  cytotoxicity at 70.5 h: -22.4%

## Cc1ccc(C)c(CN(CC(N)=O)C(C)C)c1
  cytotoxicity at 70.5 h: -1.28%

## COc1ccc(CC(=O)NC2(C)CCS(=O)(=O)C2)cc1F (stereo unspecified)
  cytotoxicity at 70.5 h: 0.396%

## Fc1ccc(-c2cnc(C3CCCN3)cn2)cc1 (stereo unspecified)
  cytotoxicity at 70.5 h: -2.54%

## CC(C)N1Cc2cccc(NCC(=O)N(C)C)c2C1
  cytotoxicity at 70.5 h: -2.57%

## CCS(=O)(=O)CCNC(=O)[C@@]12CNC[C@@H]1CN(C1CCCC1)C2
  cytotoxicity at 70.5 h: -0.64%

## NCC1CN(C(=O)Cn2ncc(N3CCCCC3)cc2=O)CCO1 (stereo unspecified)
  cytotoxicity at 70.5 h: -2.61%

## O=c1c2ccccc2nc2n1CCC2O (stereo unspecified)
  cytotoxicity at 70.5 h: -12.8%

## Cc1cc2nc(SCC(=O)N3CCCC3)n(Cc3ccco3)c(O)c-2n1
  cytotoxicity at 70.5 h: -8.29%

## Cn1nc(C2CCCN(Cc3ccc(F)cc3F)C2)c2nccnc21 (stereo unspecified)
  cytotoxicity at 70.5 h: 0.45%

## Cc1ccc(CCNc2nc(-c3ccncc3)nc3c2CCNCC3)o1
  cytotoxicity at 70.5 h: 2.56%

## CC(C)N1CCO[C@H]2CN(S(=O)(=O)c3ccc(C#N)cc3)C[C@H]21
  cytotoxicity at 70.5 h: -11.6%

## Cc1ccsc1CNCCCOc1ccccn1
  cytotoxicity at 70.5 h: 1.65%

## O[C@@H]1CN(Cc2ccc(F)c(F)c2)CC[C@H]1NCc1ccccn1
  cytotoxicity at 70.5 h: 22.5%

## Cc1nn(C2CCS(=O)(=O)C2)c(O)c1Cc1ccccc1 (stereo unspecified)
  cytotoxicity at 70.5 h: -16.5%

## COc1ccc(OC)c(-n2cnnc2COC(C)C)c1
  cytotoxicity at 70.5 h: -0.141%

## CC(C)C(C(=O)NCc1ccccc1-n1cccn1)N(C)C (stereo unspecified)
  cytotoxicity at 70.5 h: -7.79%

## COCc1c(Br)cccc1NC(=O)N(C)CCO
  cytotoxicity at 70.5 h: -12.1%

## CCN(CC)CCSc1ncnc2[nH]ncc12
  cytotoxicity at 70.5 h: 1.79%

## Cc1nnc2n1CCN(Cc1nc3c(F)cccc3[nH]1)C2
  cytotoxicity at 70.5 h: -9.16%

## Cc1ccc(-n2nnc(C(=O)NS(C)(=O)=O)c2C2CC2)cc1
  cytotoxicity at 70.5 h: -9%

## O=c1ncn(-c2cccc(F)c2)c2ncccc12
  cytotoxicity at 70.5 h: -0.419%

## CC(=O)N1CCC2(CCCN(S(=O)(=O)c3ccc(F)cc3)C2)C1 (stereo unspecified)
  cytotoxicity at 70.5 h: 5.56%

## COCCCNc1nccc(-c2c[nH][nH]c2=O)n1
  cytotoxicity at 70.5 h: 22.8%

## COc1ccc(N2CCN(C(=O)[C@@H]3C[C@@H](O)CN3)CC2(C)C)cc1
  cytotoxicity at 70.5 h: 6.62%

## Cc1ccc(N2CCC3(CN(Cc4ccncc4)CCC3(F)F)C2)nn1 (stereo unspecified)
  cytotoxicity at 70.5 h: -1.36%

## C[C@H]1CN(c2ccccn2)C[C@@]12CCN(Cc1cccnc1)C2=O
  cytotoxicity at 70.5 h: -0.624%

## CNC(=O)[C@@H]1[C@H]2CN(Cc3ccccn3)CCN2C[C@H]1c1ccccc1
  cytotoxicity at 70.5 h: 4.19%

## CC(C(=O)N1CCCN(Cc2ccc(C#N)cc2)CC1)n1cccn1 (stereo unspecified)
  cytotoxicity at 70.5 h: 1.6%

## CN(C)C(=O)N1CCCC(C(=O)N(C)CCCc2cnn(C)c2)C1 (stereo unspecified)
  cytotoxicity at 70.5 h: -11.5%

## CNS(=O)(=O)CCN1CC(c2ccccc2)(c2ccccc2)CCC1=O
  cytotoxicity at 70.5 h: 5.38%
